Laboratory results taken from patent US4808614A (priority 1987, dated 1989).

Tests used:
Herpes simplex, type I = experiment: cells; assay type: cell-based, Herpes simplex virus; details: Chlorocebus sabaeus, BSC-1, 72 h, read-out: Percent Plaque Inhibition
Pseudorabies Virus = experiment: microbe, parasite or virus in culture; assay type: cell-based; details: Suid alphaherpesvirus 1, BSC-1, in Chlorocebus sabaeus, 72 h, read-out: Percent Plaque Inhibition
[1] = test system: X5563 plasma cell myeloma; experiment: Oncolytic activity in tumor system X5563 plasma cell myeloma; assay type: in vivo
6C3HED lymphosarcoma = experiment: Oncolytic activity in tumor system 6C3HED lymphosarcoma; assay type: in vivo
[2] = test system: P1534J lymphatic leukemia; experiment: Oncolytic activity in tumor system P1534J lymphatic leukemia; assay type: in vivo
[3] = test system: L1210V lymphocytic leukemia; experiment: Oncolytic activity in tumor system L1210V lymphocytic leukemia; assay type: in vivo
CA-755 adenocarcinoma = experiment: Oncolytic activity in tumor system CA-755 adenocarcinoma; assay type: in vivo

| SMILES | inhibition at 0.39 µg/mL (Herpes simplex, type I) | inhibition at 0.78 µg/mL (Herpes simplex, type I) | inhibition at 1.56 µg/mL (Herpes simplex, type I) | inhibition at 3.12 µg/mL (Herpes simplex, type I) | inhibition at 6.25 µg/mL (Herpes simplex, type I) | inhibition at 12.5 µg/mL (Herpes simplex, type I) | inhibition at 25 µg/mL (Herpes simplex, type I) | inhibition at 50 µg/mL (Herpes simplex, type I) | inhibition at 100 µg/mL (Herpes simplex, type I) | inhibition at 3 µg/mL (Pseudorabies Virus) | inhibition at 6 µg/mL (Pseudorabies Virus) | inhibition at 12 µg/mL (Pseudorabies Virus) | inhibition at 25 µg/mL (Pseudorabies Virus) | inhibition at 50 µg/mL (Pseudorabies Virus) | inhibition at 100 µg/mL (Pseudorabies Virus) | oncolytic activity [1] | oncolytic activity (6C3HED lymphosarcoma) | oncolytic activity [2] | oncolytic activity [3] | oncolytic activity (CA-755 adenocarcinoma) |
| --- | --- | --- | --- | --- | --- | --- | --- | --- | --- | --- | --- | --- | --- | --- | --- | --- | --- | --- | --- | --- |
| Cc1cn(C2O[C@H](CO)[C@@H](O)C2(F)F)c(=O)[nH]c1=O (some centres unmarked) [DFAT, 1-(5-methyl-2,4-dioxo-1H,3H-pyrimidin-1-yl)-2-desoxy-2,2-difluororibose] | 4% | 8% | 0% | 12% | 15% | 35% | 53% | 72% | 96% | 5% | 6% | 12% | 15% | 18% | 23% | – | – | – | – | – |
| Nc1ccn(C2O[C@H](CO)[C@@H](O)C2(F)F)c(=O)n1 (some centres unmarked) [Example 8, 1-(2-oxo-4-amino-1H-pyrimidin-1-yl)-2-desoxy-2,2-difluororibose] | – | – | – | – | – | – | – | – | – | – | – | – | – | – | – | demonstrated activity | demonstrated activity | demonstrated activity | demonstrated activity | demonstrated activity |
